# Source: patent US6399745B1, “Use of leptin antagonists for treating insulin resistance in type II diabetes” (Aventis Pharma Deutschland GmbH, priority 1996, dated 2002)
# What was measured:
# [1] = test system: isolated rat adipocytes; assay: Glucose transport (2-deoxyglucose uptake) in isolated rat adipocytes after primary culture with leptin, basal and insulin-stimulated; assay type: cell-based
# Procedure: (§1) Adipocytes were prepared from the epididymal fat tissue of male Wistar rats (140-160 g, Hoechst AG breeding station, Kastengrund) by means of digesting with collagenase (Rodbell, 1964, J. Biol. Chem. 239, 375-380), washed twice with KRH (25 mM Hepes free acid, 25 mM Hepes sodium salt, 80 mM NaCl, 1 mM MgSO4, 2 mM CaCl2, 6 mM KCl, 1 mM sodium pyruvate, 0.5% BSA) and once with DMEM (Dulbecco's minimal essential medium), supplemented with 5.5 mM glucose, 20 mM Hepes (pH 7.4), 2% fetal calf serum, 1% BSA, 50 U of penicillin/ml, […], by means of flotation (800×g, 1 min, in small plastic tubes), and finally diluted to a volume of 20 ml of DMEM/g wet weight of the fat tissue (cell titer: approximately 2.5×10^5 cells/ml).
# The adipocytes were incubated, at 37° C. for 15-18 h under an atmosphere of 5% CO2 and with gentle shaking, in supplemented (see above) DMEM in the presence of 100 nM phenylisopropyladenosine (4 ml of DMEM to 1 ml of cells, cell titer approximately 5×10^4 cell/ml, in 50 ml sterile polypropylene: tubes) and in the presence or absence of leptin. The adipocytes were subsequently washed three times with cold KRH and adjusted to a cell titer of approximately 3×10^5 cells/ml by adding 0.7 ml of glucose-free KRH to the cell layer which remained after the complete removal of the last washing solution. In order to determine the capacity of the adipocytes to be stimulated by insulin, and their sensitivity to insulin, following the primary culture, the washed adipocytes were incubated at 37° C. for 20 min in the absence or presence of human insulin (0.02-50 nM final concentration), and glucose transport or lipogenesis was then measured.
# Glucose transport was measured as the specific uptake of the non-metabolizable glucose analog 2-deoxyglucose (Muller and Wied, 1993, Diabetes 42, 1852-1867). 50 μl of the adipocyte suspension in KRH, which suspension had or had not been preincubated with insulin (see above), were incubated, at 25° C. for 5 min, with 50 μl of KRH which was supplemented with 2-deoxy-D-[2,6-^3H]glucose (0.5 μCi, 0.2 mM). The incubation mixtures were transferred to thin soft-plastic centrifuge tubes, each of which already contained 200 μl of dinonyl phthalate oil, and immediately centrifuged (2,000×g, 30 sec). Using special shears, the tubes were severed within the oil layer (in the vicinity of the upper edge) and the upper halves of the tubes, together with the cell layers which had in each case been floated onto the oil layer, were transferred to scintillation vials. After 10 ml of scintillation fluid (water-based) had been added, the radioactivity associated with the cells was measured. In order to correct for 2-deoxyglucose which had become enclosed in the cell interstices, or had diffused into the cells, in a non-specific manner, the radioactivity of cells which had been preincubated with cytochalasin B (20 μM) was subtracted from the total cell-associated radioactivity of each individual incubation mixture (Gliemann et al., 1972, Biochim. Biophys. Acta 286, 1-9).
# Isolated rat adipocytes were incubated for 15 h in primary culture in the presence or absence of increasing concentrations of leptin. […] The stimulation factor for insulin was calculated as the ratio between insulin-stimulated and basal activities. Each value represents the mean from two independent adipocyte cultures with activity being determined two or three times in each case.
# The cells were then washed and tested for the stimulation of glucose transport by differing concentrations of insulin. Glucose transport activity is given as a “dpm value” of the 2deoxy-[^3H]glucose which is specifically associated with the cells. Each value represents the mean from two independent adipocyte cultures with the activity being determined four times in each case.
# [2] = test system: isolated rat adipocytes; assay: Antagonism of fragment 116-167 to the leptin effect: insulin-stimulated glucose transport; assay type: cell-based; details: Insulin only, 5 nM (no leptin, no fragment)
# Procedure: as §1, with “cells/ml). […]” for “cells/ml).”
# Glucose transport was measured as the specific uptake of the non-metabolizable glucose analog 2-deoxyglucose (Muller and Wied, 1993, Diabetes 42, 1852-1867). […] After 10 ml of scintillation fluid (water-based) had been added, the radioactivity associated with the cells was measured. […]
# Isolated rat adipocytes were incubated for 17.5 h in primary culture in the presence or absence of leptin (10 nM) and increasing concentrations of leptin fragment 116-167. […] The stimulation factor for insulin was calculated as the ratio between the insulin-stimulated activity and the basal activity. […]
substance,measurement,setting,value
Insulin: human insulin used to stimulate adipocytes [reference compound],stimulation of glucose transport by insulin,[1]; insulin 10 nM,approximately 14 fold
same,insulin concentration at which effects can already be detected in vitro,"[1]; insulin dose/effect curves, glucose transport",0.1 to 0.2 nM
same,"glucose transport, uptake of 3H-labeled 2-deoxyglucose","[1]; no leptin, insulin 0.02 nM",784 dpm
same,"glucose transport, uptake of 3H-labeled 2-deoxyglucose","[1]; no leptin, insulin 0.05 nM",1285 dpm
same,"glucose transport, uptake of 3H-labeled 2-deoxyglucose","[1]; no leptin, insulin 0.1 nM",2406 dpm
same,"glucose transport, uptake of 3H-labeled 2-deoxyglucose","[1]; no leptin, insulin 0.2 nM",4762 dpm
same,"glucose transport, uptake of 3H-labeled 2-deoxyglucose","[1]; no leptin, insulin 0.5 nM",6976 dpm
same,"glucose transport, uptake of 3H-labeled 2-deoxyglucose","[1]; no leptin, insulin 1 nM",7981 dpm
same,"glucose transport, uptake of 3H-labeled 2-deoxyglucose","[1]; no leptin, insulin 2 nM",8576 dpm
same,"glucose transport, uptake of 3H-labeled 2-deoxyglucose","[1]; no leptin, insulin 5 nM",8956 dpm
same,"glucose transport, uptake of 3H-labeled 2-deoxyglucose","[1]; no leptin, insulin 10 nM",9064 dpm
same,"glucose transport, uptake of 3H-labeled 2-deoxyglucose","[1]; no leptin, insulin 50 nM",9072 dpm
same,"Glucose Transport, stimulation factor for insulin (stimulated/basal)","[1]; no leptin, Insulin concentration: 5 nM",13.4
same,"Glucose Transport, stimulation factor for insulin (stimulated/basal)",[2],13.4
